Values after ≈ are worked out from the molar mass of the structure shown.
Legend:
Format in all cases: functional
[1] = system: Mycobacterium tuberculosis; assay: Antimycobacterial activity against Mycobacterium tuberculosis overexpressing DprE1 assessed as growth inhibition by resazurin assay
[2] = system: Mycobacterium tuberculosis; assay: Antimycobacterial activity against BTZ043-resistant Mycobacterium tuberculosis harboring DprE1 C-G mutant assessed as growth inhibition by resazurin assay
[3] = system: Mycobacterium tuberculosis; assay: Antimycobacterial activity against BTZ043-resistant Mycobacterium tuberculosis harboring DprE1 C-S mutant assessed as growth inhibition by resazurin assay
[4] = system: Mycobacterium tuberculosis; assay: Antimycobacterial activity against 3-cyclopropyl-1-phenyl-5-((3-(trifluoromethyl)benzylamino)-methyl)-1H-pyrazolo[3,4-b]pyridin-6(7H)-one-resistant Mycobacterium tuberculosis clone 8.1 assessed as growth inhibition by resazurin assay; details: clone 8.1, 7 h
[5] = system: Mycobacterium tuberculosis; assay: Antimycobacterial activity against 3-cyclopropyl-1-phenyl-5-((3-(trifluoromethyl)benzylamino)-methyl)-1H-pyrazolo[3,4-b]pyridin-6(7H)-one-resistant Mycobacterium tuberculosis clone 8.2 assessed as growth inhibition by resazurin assay; details: clone 8.2, 7 h
[6] = system: Mycobacterium tuberculosis; assay: Antimycobacterial activity against 3-cyclopropyl-1-phenyl-5-((3-(trifluoromethyl)benzylamino)-methyl)-1H-pyrazolo[3,4-b]pyridin-6(7H)-one-resistant Mycobacterium tuberculosis clone 8.3 assessed as growth inhibition by resazurin assay; details: clone 8.3, 7 h
[7] = system: Mycobacterium tuberculosis; assay: Antimycobacterial activity against streptomycin-resistant Mycobacterium tuberculosis 136570 assessed as growth inhibition after 2 to 3 weeks by turbidometry
[8] = system: Mycobacterium tuberculosis; assay: Antimycobacterial activity against isoniazid-resistant Mycobacterium tuberculosis 912253 assessed as growth inhibition after 2 to 3 weeks by turbidometry
[9] = system: Mycobacterium tuberculosis; assay: Antimycobacterial activity against rifampin-resistant Mycobacterium tuberculosis 19000 assessed as growth inhibition after 2 to 3 weeks by turbidometry
[10] = system: Mycobacterium tuberculosis; assay: Antimycobacterial activity against ethambutol-resistant Mycobacterium tuberculosis 17003 assessed as growth inhibition after 2 to 3 weeks by turbidometry
[11] = system: Mycobacterium tuberculosis; assay: Antimycobacterial activity against ofloxacin-resistant Mycobacterium tuberculosis 12119 assessed as growth inhibition after 2 to 3 weeks by turbidometry

Row | Structure (SMILES) | MIC [1] | MIC [2] | MIC [3] | MIC [4] | MIC [5] | MIC [6] | MIC [7] | MIC [8] | MIC [9] | MIC [10] | MIC [11]
1 | C[C@H]1COC2(CCN(c3nc(=O)c4cc(C(F)(F)F)cc([N+](=O)[O-])c4s3)CC2)O1 [BTZ-043] | > 100 µM | 0.6 µM (≈ 0.259 µg/mL) | 0.3 µM (≈ 0.129 µg/mL) | > 100 µM | 100 µM (≈ 43.1 µg/mL) | 12.5 µM (≈ 5.39 µg/mL) | – | – | – | – | –
2 | O=c1[nH]c2c(cc1CNCc1cccc(C(F)(F)F)c1)c(C1CC1)nn2-c1ccccc1 | 0.6 µM (≈ 0.263 µg/mL) | 50 µM (≈ 21.9 µg/mL) | >100 µM | 50 µM (≈ 21.9 µg/mL) | 0.1 µM (≈ 0.0438 µg/mL) | 0.2 µM (≈ 0.0877 µg/mL) | 1.6 µM (≈ 0.702 µg/mL) | 3.1 µM (≈ 1.36 µg/mL) | 1.6 µM (≈ 0.702 µg/mL) | 1.6 µM (≈ 0.702 µg/mL) | 1.6 µM (≈ 0.702 µg/mL)
3 | NNC(=O)c1ccncc1 [ISONIAZID] | 100 µM (≈ 13.7 µg/mL) | 0.3 µM (≈ 0.0411 µg/mL) | 0.1 µM (≈ 0.0137 µg/mL) | 100 µM (≈ 13.7 µg/mL) | > 100 µM | 0.2 µM (≈ 0.0274 µg/mL) | 0.2 µM (≈ 0.0274 µg/mL) | > 29 µM | 0.2 µM (≈ 0.0274 µg/mL) | 0.2 µM (≈ 0.0274 µg/mL) | 0.2 µM (≈ 0.0274 µg/mL)
4 | O=c1[nH]c2c(cc1CNCc1cc(C(F)(F)F)ccc1F)c(C1CC1)nn2-c1ccccc1 | 100 µM (≈ 45.6 µg/mL) | 25 µM (≈ 11.4 µg/mL) | 1.2 µM (≈ 0.548 µg/mL) | 100 µM (≈ 45.6 µg/mL) | 0.08 µM (≈ 0.0365 µg/mL) | 0.2 µM (≈ 0.0913 µg/mL) | – | – | – | – | –
5 | O=c1[nH]c2c(cc1CNCc1cccc(C(F)(F)F)n1)c(C1CC1)nn2-c1ccccc1 | 50 µM (≈ 22 µg/mL) | 100 µM (≈ 43.9 µg/mL) | 100 µM (≈ 43.9 µg/mL) | 1.2 µM (≈ 0.527 µg/mL) | > 100 µM | 0.2 µM (≈ 0.0879 µg/mL) | – | – | – | – | –
6 | Cc1nn(-c2ccccc2)c2[nH]c(=O)c(CNCc3cccc(C(F)(F)F)c3)cc12 | 2.5 µM (≈ 1.03 µg/mL) | 0.3 µM (≈ 0.124 µg/mL) | 100 µM (≈ 41.2 µg/mL) | > 100 µM | 100 µM (≈ 41.2 µg/mL) | 0.2 µM (≈ 0.0825 µg/mL) | 3.1 µM (≈ 1.28 µg/mL) | 6.2 µM (≈ 2.56 µg/mL) | 3.1 µM (≈ 1.28 µg/mL) | 3.1 µM (≈ 1.28 µg/mL) | 1.6 µM (≈ 0.66 µg/mL)
7 | Cc1ccc(C(F)(F)F)cc1CNCc1cc2c(C3CC3)nn(-c3ccccc3)c2[nH]c1=O | 1.2 µM (≈ 0.543 µg/mL) | >100 µM | 0.3 µM (≈ 0.136 µg/mL) | 0.3 µM (≈ 0.136 µg/mL) | > 100 µM | 0.2 µM (≈ 0.0905 µg/mL) | – | – | – | – | –
8 | CN[C@@H]1[C@H](O[C@H]2[C@H](O[C@H]3[C@H](O)[C@@H](O)[C@H](N=C(N)N)[C@@H](O)[C@@H]3N=C(N)N)O[C@@H](C)[C@]2(O)C=O)O[C@@H](CO)[C@H](O)[C@H]1O [STREPTOMYCIN] | – | – | – | – | – | – | > 5 µM | 0.3 µM (≈ 0.174 µg/mL) | 0.3 µM (≈ 0.174 µg/mL) | 0.3 µM (≈ 0.174 µg/mL) | 0.3 µM (≈ 0.174 µg/mL)
9 | O=c1[nH]c2c(cc1CNCc1cccc(C(F)(F)F)c1F)c(C1CC1)nn2-c1ccccc1 | 25 µM (≈ 11.4 µg/mL) | 1.2 µM (≈ 0.548 µg/mL) | >100 µM | 0.6 µM (≈ 0.274 µg/mL) | 0.04 µM (≈ 0.0183 µg/mL) | 0.2 µM (≈ 0.0913 µg/mL) | – | – | – | – | –
10 | CC[C@@H](CO)NCCN[C@@H](CC)CO [ETHAMBUTOL] | – | – | – | – | – | – | 2 µM (≈ 0.409 µg/mL) | 2 µM (≈ 0.409 µg/mL) | 2 µM (≈ 0.409 µg/mL) | > 20 µM | 2 µM (≈ 0.409 µg/mL)
11 | CO[C@H]1/C=C/O[C@@]2(C)Oc3c(C)c(O)c4c(O)c(c(/C=N/N5CCN(C)CC5)c(O)c4c3C2=O)NC(=O)/C(C)=C\C=C\[C@H](C)[C@H](O)[C@@H](C)[C@@H](O)[C@@H](C)[C@H](OC(C)=O)[C@@H]1C [RIFAMPIN] | – | – | – | – | – | – | 0.02 µM (≈ 0.0165 µg/mL) | 0.02 µM (≈ 0.0165 µg/mL) | > 5 µM | 0.02 µM (≈ 0.0165 µg/mL) | 0.02 µM (≈ 0.0165 µg/mL)
12 | CC1COc2c(N3CCN(C)CC3)c(F)cc3c(=O)c(C(=O)O)cn1c23 (stereo not drawn) [OFLOXACIN] | – | – | – | – | – | – | 0.7 µM (≈ 0.253 µg/mL) | 0.7 µM (≈ 0.253 µg/mL) | 0.7 µM (≈ 0.253 µg/mL) | 0.7 µM (≈ 0.253 µg/mL) | > 5 µM

Source: ChEMBL document CHEMBL3259779, “Discovery of pyrazolopyridones as a novel class of noncovalent DprE1 inhibitor with potent anti-mycobacterial activity” (J Med Chem, 2014)
